Experimental data from ChEMBL document CHEMBL2074312, “Involvement of multispecific organic anion transporter, Oatp14 (Slc21a14), in the transport of thyroxine across the blood-brain barrier” (Endocrinology, 2004).

Target: Solute carrier organic anion transporter family member 1C1
Assay: TP_TRANSPORTER: inhibition of L-T4 uptake in Oatp14-expressing HEK293 cells
Format: functional, cell-based

Ki [µM] | Compound
24.2 | N[C@@H](Cc1cc(I)c(Oc2ccc(O)c(I)c2)c(I)c1)C(=O)O [LIOTHYRONINE]
293 | CCCN(CCC)S(=O)(=O)c1ccc(C(=O)O)cc1 [PROBENECID]
53.1 | C[C@]12CC[C@@H]3c4ccc(OS(=O)(=O)O)cc4CC[C@H]3[C@@H]1CCC2=O [ESTRONE SULFURIC ACID]
0.27 | N[C@H](Cc1cc(I)c(Oc2cc(I)c(O)c(I)c2)c(I)c1)C(=O)O [DEXTROTHYROXINE]
2.15 | O=C(O)Cc1cc(I)c(Oc2ccc(O)c(I)c2)c(I)c1 [TIRATRICOL]

Compound | Ki [µM]
C[C@]12CC[C@@H]3c4ccc(O)cc4CC[C@H]3[C@@H]1CC[C@@H]2O[C@@H]1O[C@H](C(=O)O)[C@@H](O)[C@H](O)[C@H]1O [ESTRADIOL 17B GLUCURONIDE] | > 100
N[C@@H](Cc1ccc(Oc2cc(I)c(O)c(I)c2)c(I)c1)C(=O)O [REVERSE TRIIODOTHYRONINE] | 0.91
